Reference: patent US20220089592A1, “IMIDAZO[1,2-A]PYRIDINYL DERIVATIVES AS IRAK4 INHIBITORS” (priority 2019, published 2022)

Target: T1, IRAK4 (Homo sapiens, UniProt Q9NWZ3)
T1 sequence (Q9NWZ3 1-460): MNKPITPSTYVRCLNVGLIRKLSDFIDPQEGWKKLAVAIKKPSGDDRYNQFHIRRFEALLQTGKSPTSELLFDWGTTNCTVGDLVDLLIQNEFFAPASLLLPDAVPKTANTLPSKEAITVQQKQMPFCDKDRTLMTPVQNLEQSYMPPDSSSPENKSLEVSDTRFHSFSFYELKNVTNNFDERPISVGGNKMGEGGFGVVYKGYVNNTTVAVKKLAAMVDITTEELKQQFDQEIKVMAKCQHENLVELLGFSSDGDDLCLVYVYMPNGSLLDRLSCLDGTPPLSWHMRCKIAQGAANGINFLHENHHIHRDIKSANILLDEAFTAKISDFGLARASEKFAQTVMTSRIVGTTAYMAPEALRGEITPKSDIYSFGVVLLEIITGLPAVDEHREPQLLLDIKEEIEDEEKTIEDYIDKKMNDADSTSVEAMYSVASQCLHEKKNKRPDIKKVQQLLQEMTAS
Assay: 2-hour 10 μM ATP Biochemical Assay (MesoScale Detection format; IRAK4 phosphorylation of biotin labeled IRAK1 activation loop peptide)
Conditions: IRAK4 MSD BIOCHEMICAL (10 μM ATP) IC50 (μM), 1 nM IRAK4, 2 hours
Experimental: The 2-hour 10 μM ATP Biochemical Assay employs a MesoScale Detection (MSD) format.
The activity is quenched with 11 μl of 70 mM EDTA, pH 8.
To detect the phosphorylated biotinylated peptide substrate, 30 μl of the quenched reaction mixture is added to equivalent wells of a 384 well streptavidin coated MesoScale plate (Meso Scale Discovery #L21SA-1). After a 1 hour incubation of the plate for 1 hour at room temperature with gentle mixing, the plate wells are washed 3 times with 50 mM Tris, pH 7.5, 150 mM NaCl, 0.02% Tween-20.
A 25 μl volume of 1:500 anti-P-Threonine Rabbit polyclonal Antibody plus 1:500 Goat-anti-Rabbit Sulfo Tag Antibody (Meso Scale Discovery R32AB-1) in 50 mM Tris, pH 7.5, 150 mM NaCl, 0.02% Tween-20 plus 2% BSA is then added to each well. After a 1-hour incubation of the plate for 1 hour at room temperature with gentle mixing, the plate wells are washed, 3 times with 50 mM Tris, pH 7.5, 150 mM NaCl, 0.02% Tween-20. A 40 μl volume of 2×MSD Read Buffer (Meso Scale Discovery R92TC-1) is added to each well, and the plate is read immediately in an MSD Plate Reader (Meso Scale Discovery).

| Compound | IC50 |
| --- | --- |
| CCOc1cc2nc(CC)cn2cc1NC(=O)c1ccc2c(c1)COC2 [Example 37, N-(7-ethoxy-2-ethylimidazo[1,2-a]pyridin-6-yl)-1,3-dihydroisobenzofuran-5-carboxamide] | 1.7 µM |
| CCOc1cc2nc(CC)cn2cc1NC(=O)c1ccc2c(c1)NC(=O)C2 [Example 41, N-(7-ethoxy-2-ethylimidazo[1,2-a]pyridin-6-yl)-2-oxoindoline-6-carboxamide] | 0.14 µM |
| O=C(Nc1cn2cc(C3CC3)nc2cc1O)c1cccc(C(F)F)n1 [Example 10, N-(2-cyclopropyl-7-hydroxyimidazo[1,2-a]pyridin-6-yl)-6-(difluoromethyl)picolinamide] | 0.059 µM |
| CCOc1cc2nc(CC)cn2cc1NC(=O)c1ccc(F)c(F)c1 [Example 35, N-(7-ethoxy-2-ethylimidazo[1,2-a]pyridin-6-yl)-3,4-difluorobenzamide] | 2.5 µM |
| O=C(Nc1cn2cc(C3CC3)nc2cn1)c1cccc(C(F)F)n1 [Example 31, N-(2-cyclopropylimidazo[1,2-a]pyrazin-6-yl)-6-(difluoromethyl)picolinamide] | 0.089 µM |
| C[C@@H](COc1cc2nc(C3CC3)cn2cc1NC(=O)c1cccc(C(F)F)n1)n1ccccc1=O (single isomer, unassigned) [Example 8] | 0.14 µM |
| CCOc1cc2nc(CC)cn2cc1NC(=O)c1ccc2c(c1)OCC2 [Example 42, N-(7-ethoxy-2-ethylimidazo[1,2-a]pyridin-6-yl)-2,3-dihydrobenzofuran-6-carboxamide] | 1.3 µM |
| CC(COc1cc2nc(C3CC3)cn2cc1NC(=O)c1cccc(C(F)F)n1)n1ccccc1=O (stereo not shown) [Example 6, N-(2-cyclopropyl-7-(2-(2-oxopyridin-1(2H)-yl)propoxy)imidazo[1,2-a]pyridin-6-yl)-6-(difluoromethyl)picolinamide] | 0.19 µM |

Second part, the compound after the results:

| IC50 | Compound |
| --- | --- |
| 2.21 µM | CCOc1cc2nc(CN3CCOCC3)cn2cc1NC(=O)c1cccc(C(F)F)n1 [Example 121, 6-(difluoromethyl)-N-(7-ethoxy-2-(morpholinomethyl)imidazo[1,2-a]pyridin-6-yl)picolinamide] |
| 0.023 µM | CN(C)CCOc1cc2nc(C3CCOCC3)cn2cc1NC(=O)c1cccc(C(F)F)n1 [Example 148, 6-(difluoromethyl)-N-(7-(2-(dimethylamino)ethoxy)-2-(tetrahydro-2H-pyran-4-yl)imidazo[1,2-a]pyridin-6-yl)picolinamide] |
| 0.011 µM | Cc1cc(NC(=O)c2cccc(C(F)F)n2)cn2cc(C3CCOCC3)nc12 [Example 410, 6-(difluoromethyl)-N-(8-methyl-2-(tetrahydro-2H-pyran-4-yl)imidazo[1,2-a]pyridin-6-yl)picolinamide 2,2,2-trifluoroacetate] |
| 0.021 µM | CCOc1cc2nc(C3CCOCC3)cn2cc1NC(=O)c1ccn(C(C)(C)C)n1 [Example 207, 1-(tert-butyl)-N-(7-ethoxy-2-(tetrahydro-2H-pyran-4-yl)imidazo[1,2-a]pyridin-6-yl)-1H-pyrazole-3-carboxamide] |
| 0.37 µM | O=C(Nc1cn2cc(C3CCOCC3)nc2cn1)c1cnn(C(F)F)c1 [Example 162, 1-(difluoromethyl)-N-(2-(tetrahydro-2H-pyran-4-yl)imidazo[1,2-a]pyrazin-6-yl)-1H-pyrazole-4-carboxamide] |
| 0.063 µM | CCOc1cc2nc(C3CC3)cn2cc1NC(=O)c1cccc(OC(F)(F)F)n1 [Example 118, N-(2-cyclopropyl-7-ethoxyimidazo[1,2-a]pyridin-6-yl)-6-(trifluoromethoxy)picolinamide] |
| 0.083 µM | CCOc1cc2nc(CC)cn2cc1NC(=O)c1ccc(Cl)cn1 [Example 46, 5-chloro-N-(7-ethoxy-2-ethylimidazo[1,2-a]pyridin-6-yl)picolinamide] |
| 0.002 µM | CCOc1cc2nc(CC3CCOC3)cn2cc1NC(=O)c1coc(-c2cnn(C)c2)n1 (single isomer, unassigned) [Example 251, N-(7-ethoxy-2-((tetrahydrofuran-3-yl)methyl)imidazo[1,2-a]pyridin-6-yl)-2-(1-methyl-1H-pyrazol-4-yl)oxazole-4-carboxamide] |
